For one assay, the target named is T1, human CRTH2-Rluc (Homo sapiens, UniProt Q9Y5Y4).
T1 construct: expressed in transfected cells; host or cells: HEK293 cell clone stably expressing βarr2-GFP2 and CRTH2-Rluc
T1 sequence (Q9Y5Y4 1-395): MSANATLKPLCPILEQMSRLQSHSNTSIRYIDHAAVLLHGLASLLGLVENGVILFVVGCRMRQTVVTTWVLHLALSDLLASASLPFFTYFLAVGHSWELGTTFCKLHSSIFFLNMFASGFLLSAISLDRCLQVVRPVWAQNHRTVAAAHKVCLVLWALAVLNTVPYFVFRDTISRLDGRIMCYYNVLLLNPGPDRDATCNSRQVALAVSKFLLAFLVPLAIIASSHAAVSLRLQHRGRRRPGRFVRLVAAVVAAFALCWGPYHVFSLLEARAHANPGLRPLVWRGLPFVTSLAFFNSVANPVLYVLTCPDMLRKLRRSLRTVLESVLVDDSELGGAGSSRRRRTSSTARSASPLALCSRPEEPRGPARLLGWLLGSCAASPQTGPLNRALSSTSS
Description: Functional antagonist BRET assay (CRTH2-Rluc / GFP2-β-arrestin2 in HEK293 cells). The format is cell-based. The following applies: HEK293 cells stably expressing CRTH2-Rluc and GFP2-β-arr2, read-out: Antag. IC50. The source says:
(§1) Generation/origin of the cDNA Constructs. The coding sequence of the human CRTH2 receptor (genbank accession no NM_004778) was amplified by PCR from a human hippocampus cDNA library and inserted into the pcDNA3.1(+) expression vector (invitrogen) via 5′ HindIII and 3′ EcoRI. To generate a CRTH2-Renilla luciferase (CRTH2-Rluc) fusion protein, the CRTH2 coding sequence without a STOP codon and Rluc were amplified, fused in frame by PCR and subcloned into the pcDNA3.1(+)Zeo expression vector (invitrogen). Human β-arrestin2 (β-arr2) N-terminally tagged with GFP^2 (βarr2-GFP^2) and Renilla luciferase were purchased from BioSignal Packard Inc, (Montreal, Canada). The sequence identity of the construct was verified by restriction endonuclease digests and sequencing in both directions on an ABI Prism (Applied Biosystems, Foster City, Calif.).
(§2) Cell Culture and Transfection. COS-7 cells were grown in Dulbecco's modified Eagle's medium (DMEM) 1885 supplemented with 10% fetal bovine serum, 100 units/ml penicillin, […], and kept at 37° C. in a 10% CO2 atmosphere. HEK293 cells were maintained in Minimum Essential medium (MEM) supplemented with 10% (v/v) heat inactivated fetal calf serum (HIFCS), 2 mM Glutamax™-I, 1% non essential amino acids (NEAA), 1% sodium pyruvate and 10 μg/ml gentamicin. For binding experiments, COS7 cells were transiently transfected with the CRTH2 receptor using a calcium phosphate-DNAcoprecipitation method with the addition of chloroquine (as described by Holst et al., 2001↓). To perform the functional Bioluminescence Resonance Energy Transfer (BRET) assays, a HEK293 cell clone stably expressing Parr2-GFP^2 and CRTH2-Rluc was generated (CRTH2-HEK293 cells).
BRET assay. Functional BRET assays were performed on HEK293 cells stably expressing human CRTH2-Rluc and GFP^2-β-arr2. Prior to their use in the BRET assay cells were detached and re-suspended in D-PBS with 1000 mg/L L-Glucose at a density of 2×10^6 cells/mL. DeepBlueC™ was diluted to 50 μM in D-PBS with 1000 mg/L L-Glucose (light sensitive). 100 μL of cell suspension was transferred to wells in a 96-well microplate (white OptiPlate) and placed in the Mithras LB 940 instrument (BERTHOLD TECHNOLOGIES, Bad Wildbad, Germany). 12 μL/well agonist was then injected by injector 1 and 10 μL/well DeepBlueC™ was injected simultaneously by injector 2. Five seconds after the injections the light output from the well was measured sequentially at 400 nm and 515 nm, and the BRET signal (mBRET ratio) was calculated by the ratio of the fluorescence emitted by GFP^2-β-arr2 (515 nm) over the light emitted by the receptor-Rluc (400 nm). Antagonists were added before placing the microplates into the Mithras LB 940 and allowed to incubate for 15 minutes prior to the addition of agonist and DeepBlueC™. Compounds were dissolved in DMSO and the final DMSO concentration was kept constant at 1% in the assay.
(§3) Curve analysis was performed with the GraphPadPrism software 3.0 (Graphpad Prism Inc., San Diego, USA) and IC50 values were calculated as a measure of the antagonistic potencies.
Background: BRET reads energy transfer from a luciferase to a nearby fluorophore.

A further assay has as its target T2, human CRTH2 receptor (Homo sapiens, UniProt Q9Y5Y4).
T2 construct: expressed in transfected cells; host or cells: COS-7 cells, transient transfection (calcium phosphate)
T2 sequence (Q9Y5Y4 1-395): T1 sequence (Q9Y5Y4 1-395)
In words: Receptor binding assay, competition with [3H]PGD2 on whole transfected cells. The following applies: competition with 0.1 nM [3H]PGD2, whole cells expressing CRTH2.
Description: as §1, §2
Binding assay. 24 h after transfection COS-7 cells were seeded into 96 well plates at a density of 30.000 cells/well. Competition binding experiments on whole cells were then performed about 18-24 h later using 0.1 nM [^3H]PGD2 (NEN, 172 Ci/mmol) in a binding buffer consisting of HBSS (GIBCO) and 10 mM HEPES. Competing ligands were diluted in DMSO which was kept constant at 1% (v/v) of the final incubation volume. Total and nonspecific binding were determined in the absence and presence of 10 μM PGD2. Binding reactions were routinely conducted for 3 h at 4° C. and terminated by 2 washes (100 μl each) with ice cold binding buffer. Radioactivity was determined by liquid scintillation counting in a TOPCOUNTER (Packard) following over night incubation in Microscint 20. Stable HEK293 cells were seeded at a density of 30.000 cells/well 18-24 h prior to the binding assay which was performed essentially as described for COS7 cells above. Determinations were made in duplicates.
as §3

Bounds are passed on as bounds.

As a reminder, the IC50 is the concentration that inhibits the measured activity by half.

Take `CC(C)C(=O)N1CCC(c2ccccc2)(c2noc(-c3cc(Br)ccc3OCC(=O)O)n2)CC1` [Example D8, {4-Bromo-2-[3-(1-isobutyryl-4-phenyl-piperidin-4-yl)-[1,2,4]oxadiazol-5-yl]-phenoxy}-acetic acid]: the IC50 at human CRTH2-Rluc and on human CRTH2 receptor was below 500 nM each time.

The values above are taken from patent US20080312220A1, “Oxadiazole Derivatives with Crth2 Receptor Activity” (priority 2005, published 2008).
